| Compound | melting point [°C] |
| --- | --- |
| Cn1cncc1S(=O)(=O)O | 286 to 287 |
| CNC(=O)C(C)Oc1ncn(-c2ccc(C(F)(F)F)cc2)n1 (centres undefined) | 157 to 158 |
| N#Cc1sc(-c2ccccc2)nc1N | 178 to 179 |
| COc1ccc(C2=c3c(c4c(c5ccccc35)=C(c3ccc(OC)cc3)CO4)NC2)cc1 | 340 |
| CC(C)(C)OC(=O)N1CCC(N(Cc2ccccc2)S(N)(=O)=O)CC1 | 140 to 142 |
| Cc1cc(C(C)N(O)C(N)=O)c(C)s1 (centres undefined) | 146 to 147 |
| Nc1nccc(-c2c[nH]c3nccc(Cl)c23)n1 | > 210 |
| N#Cc1cccc2c1[nH]c1ccccc12 | 200 to 201 |
| CSc1nc(C)cc2nccn12 | 67 to 69 |
| CON1CCC2(CC1)C(OCc1ccccc1)=C(c1c(C)cc(C)cc1C)C(=O)N2CC1CC1 | 119 to 121 |
| Nc1ccc2c3c(cccc13)CC2 | 178 to 179 |
| CCOc1c(C)c(N2CCN(c3ccc(OC)cc3)CC2)c(C)c2c1OC(C)(C)C2=O | 109 to 112 |
| CC(=O)C(C(C)=O)[C@@H]1NC(=O)[C@@H]1C(C)(C)O | 109 to 110 |
| CCCCCCSc1nn2c(=O)cc(-c3ccccc3)nc2s1 | 90 to 91 |
| O=C1C2C(C(=O)N1Cc1ccccc1)C2[N+](=O)[O-] (centres undefined) | 108 to 109 |
| CON=C(N)Nc1nc(C)nc(OC)n1 | 142 |

| Compound | melting point [°C] |
| --- | --- |
| CC1(C)CC(Nc2nccc3ccccc23)CC(C)(C)N1 | 133 |
| CCN(CC)S(=O)(=O)c1ccc(C#CC(C)(O)C(F)(F)F)cc1 (centres undefined) | 140 to 144 |
| CCOP(=O)(OCC)C(CCc1cc(C)nc2cc(-c3ccccc3)nn12)P(=O)(OCC)OCC | 51 to 52 |
| CC(C)(O)c1cc2cc(O)c(Cl)c(Cl)c2s1 | 171 to 173 |
| O=CCC1Cc2ccc(F)cc2C1=O (racemic) | 62 |
| C#CC(=CC(=O)O)c1ccccc1 | 130 |
| Nc1cncnc1NCCN1CCC(Nc2nc3ccccc3n2Cc2ccc(F)cc2)CC1 | 208 |
| O=c1[nH]c2c(cc1-c1nc(-c3ccccc3)no1)CN(Cc1ccccc1)CC2 | 231 to 233 |
| COc1cc2c(cc1Nc1ncc(Cl)c(Nc3ccc(N4CCOCC4)cc3OC)n1)CCN(CCNC(C)=O)CC2 | 50 to 65 |
| Fc1ccccc1-c1n[nH]c(-c2ccccc2C(F)(F)F)n1 | 153 to 155 |
| NC(=S)c1cccc(-c2cccc(C(N)=S)c2)c1 | 188 to 190 |
| FC(F)(F)c1ccccc1CC[C@H]1CN(Cc2ccccc2)CCN1Cc1ccccc1 | 77 to 82 |
| CC(C)C(Br)C(=O)NCC(=O)O (centres undefined) | 138 to 139 |
| COC(=O)c1[nH]ccc1O | 100 to 102 |
| ClCc1coc(-c2cc3ccccc3o2)n1 | 133 to 134 |

Second part, the compound after the results:

| melting point [°C] | Compound |
| --- | --- |
| 144 to 146 | CCOC(=O)[C@@H](O)[C@@H]1OC(=O)c2cc(OC)c(OC)cc21 |
| 172 | Cn1cc(-c2ccccc2)c(=O)c(-c2ccc(Br)cc2)c1 |
| 52 to 53 | Cc1ccccc1C=CC(=O)OCCc1ccccc1 |
| 216 | O=c1ncc(I)cn1COc1ccc(Cl)cc1 |
| 159 to 160 | COc1cc(OC)c(C(=O)c2cc(Cl)ccc2NC(C)=O)c(OC)c1 |
| 107 to 108 | CCc1nc(-c2cccc(C)c2)c(-c2ccnc(NC(=O)Cc3ccccc3)c2)s1 |
| 197 to 198 | CCOc1nn(Cc2ccc(OCc3cn4c(OCC)cccc4n3)cc2)cc1CCC(=O)O |
| 121 | CCCCOc1cc(/C=C(\OCC)C(=O)O)ccc1OCCc1ccc(N(C)C(C)=O)cc1 |
| 188 to 190 | CC(C)Oc1ccc(Oc2ccc3c(c2)c(C(=O)O)c(CC(=O)O)n3-c2cccc(Cl)c2)cc1 |
| 93 to 94 | COC(=O)/C(=C/C=C/c1cc2ccccc2n1C)OC |
| 160 to 161 | O=C1CNC(=O)C(Cc2cccc(NCc3ccccc3)c2)N1 (centres undefined) |
| 200 to 201 | Cc1c(NC(=O)c2ccc(CC(=O)C3CC3)cc2)ccc2cc(CN3CCCC3)cnc12 |
| 172 to 176 | CS(=O)(=O)c1ccc(C(CC2CCCC2)C(=O)Nc2ncc(C(=O)O)s2)cc1 (centres undefined) |
| 123 to 125 | CS(=O)(=O)c1ccc(Oc2cc3nc(-c4ccccc4)oc3cc2[N+](=O)[O-])cc1 |
| 78 to 80 | O=C(CCC1(C(=O)O)CCCC1)OCc1ccc([N+](=O)[O-])cc1 |
| 106 to 108 | CC1C(=O)N(c2ccccc2)C(=S)N1c1ccc(Oc2ccc(O)cc2)cc1 (centres undefined) |
| 112 | C[C@H](N=Cc1ccc(OCc2cccc(F)c2)cc1)C(N)=O |
| 243 to 244 | CCOC(=O)c1ccc2c(c1)C(=O)NC(C(Cl)(Cl)Cl)N2 (centres undefined) |
| 201 to 205 | COc1ccc(S(=O)(=O)Nc2c(Cl)cccc2Cl)c2c1[nH]c1ccccc12 |
| 98.6 | COCCO[C@@H]1c2ccn3c(C)c(C)nc3c2N[C@H](c2ccccc2)[C@H]1OC(=O)CCCCBr |
| 144 to 145 | CNC(=O)N1CC(Oc2ccc(Cl)cc2)C1 |
| 131 to 133 | CCCCOCCOc1ccc(-c2ccc3c(c2)C=C(C(=O)Nc2ccc(N(C)Cc4nncn4CCC)cc2)CCN3CCC)cc1 |

| melting point [°C] | Compound |
| --- | --- |
| 248 to 249 | Cc1ccc(Oc2ccc(C3=CC=CN4CCS(=O)(=O)N=C34)cc2)cc1 |
| 206 to 207 | COC(=O)c1ccc(-c2nc(-c3ccc(Br)cc3)cs2)cc1 |
| 157 to 159 | Nc1ccc(CCCCOCCCCCCNCC(O)c2cc(O)cc(O)c2)cc1 (centres undefined) |
| 142 to 143 | C=CCc1c(N)ccc2c(=O)cc(C(=O)OCC)oc12 |
| 225 to 226 | CN1C(=O)C(=CC(=O)O)SC1=Nc1ccc(Cl)c(Cl)c1 |
| 179 to 182 | COc1ccc(-c2cccc3nc(Nc4cc(OC)c(OC)c(OC)c4)oc23)cc1 |
| 193 to 195 | CN(C)CNS(=O)(=O)c1ccc(-c2cnn(Cc3ccc(F)cc3F)c(=O)c2-c2ccc(F)cc2)cc1 |
| 135 to 137 | Cc1cccc(C)c1C(=O)N1C(=O)CN(c2ccccc2)C1=O |
| 191 to 192 | COc1ccc(S(=O)(=O)Nc2ccccc2NC(=O)c2cccc(O)c2)cc1 |
| 122 to 124 | ClC1Cc2cc(Br)ccc2Sc2ccccc21 (centres undefined) |
| 130 to 131 | COc1ccc(C[C@@H](NC(=O)CCCc2ccccc2)[C@@H](O)c2ccc(F)cc2)cc1 (racemic) |
| 156 | CC(C)(O)C(=O)Nc1ccc(S(=O)(=O)c2ccccc2)cc1F |
| 188 to 190 | COc1ccc(Cl)cc1C(=O)Nc1ccc(CCC(=O)O)cc1 |
| 116 to 117 | O=C(O)C(=O)c1ccc(O)c(Cl)c1 |
| 141 | COC(=O)c1scc(-c2ccccc2)c1-c1ccc(SC)c(F)c1 |
| 138 to 140 | COc1ccc(C(=Cc2c(Cl)cncc2Cl)c2ccccc2)cc1OC1CCCC1 |
| 177 to 180 | Cc1cn(C)c(=O)n(-c2cc(C(=O)OC(C)C)c(Cl)cc2F)c1=O |
| 155 to 157 | CCn1cc(C(=O)O)c(=O)cc1Cl |
| 73 to 75 | O=[N+]([O-])c1ccc(COP(=O)(COS(=O)(=O)C(F)(F)F)OCc2ccc([N+](=O)[O-])cc2)cc1 |
| 102 | CCNC(=O)c1ccc(F)c(Cl)c1 |
| 205 to 207 | O=C(O)c1cc(OCc2ccccc2)c(C(=O)c2ccccc2)c([N+](=O)[O-])c1 |

Source: a melting point compilation (Tetko et al.; mined from patent text by program, amines drawn as free bases though some values may be those of a salt)
